From PubChem BioAssay (NCI)
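Step 1: Grow cells in 96-well plates. Step 2: Expose to compound for 48 hours at 5 concentrations. Step 3: Interpolate endpoints linearly; if unreached, use highest concentration. TGI is the concentration that stops growth completely.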

Key:
Assay in all cases: DTP human tumour cell line panel, 48 h
786-0 renal = test system: 786-0 renal
A498 renal = test system: A498 renal
A549 NSCLC = test system: A549 NSCLC
ACHN renal = test system: ACHN renal
BT-549 breast = test system: BT-549 breast
CAKI-1 renal = test system: CAKI-1 renal
CCRF-CEM leukemia = test system: CCRF-CEM leukemia
DU-145 prostate = test system: DU-145 prostate
EKVX NSCLC = test system: EKVX NSCLC
HCC-2998 colon = test system: HCC-2998 colon
HCT-116 colon = test system: HCT-116 colon
HCT-15 colon = test system: HCT-15 colon
HL-60(TB) leukemia = test system: HL-60(TB) leukemia
HOP-62 NSCLC = test system: HOP-62 NSCLC
HS 578T breast = test system: HS 578T breast
HT29 colon = test system: HT29 colon
IGROV1 ovarian = test system: IGROV1 ovarian
K-562 leukemia = test system: K-562 leukemia
KM12 colon = test system: KM12 colon
LOX IMVI melanoma = test system: LOX IMVI melanoma
MALME-3M melanoma = test system: MALME-3M melanoma
MCF7 breast = test system: MCF7 breast
MDA-MB-231 breast = test system: MDA-MB-231 breast
MDA-N = test system: MDA-N
MOLT-4 leukemia = test system: MOLT-4 leukemia
NCI-H226 lung = test system: NCI-H226 lung
NCI-H460 lung = test system: NCI-H460 lung
NCI-H522 lung = test system: NCI-H522 lung
OVCAR-3 ovarian = test system: OVCAR-3 ovarian
OVCAR-8 ovarian = test system: OVCAR-8 ovarian
PC-3 prostate = test system: PC-3 prostate
RPMI-8226 leukemia = test system: RPMI-8226 leukemia
RXF 393 renal = test system: RXF 393 renal
SF-268 CNS = test system: SF-268 CNS
SF-295 CNS = test system: SF-295 CNS
SF-539 CNS = test system: SF-539 CNS
SK-MEL-2 melanoma = test system: SK-MEL-2 melanoma
SK-MEL-28 melanoma = test system: SK-MEL-28 melanoma
SK-MEL-5 melanoma = test system: SK-MEL-5 melanoma
SN12C renal = test system: SN12C renal
SNB-19 CNS = test system: SNB-19 CNS
SNB-75 CNS = test system: SNB-75 CNS
SR leukemia = test system: SR leukemia
SW-620 colon = test system: SW-620 colon
T-47D breast = test system: T-47D breast
TK-10 renal = test system: TK-10 renal
U251 CNS = test system: U251 CNS
UACC-257 melanoma = test system: UACC-257 melanoma
UACC-62 melanoma = test system: UACC-62 melanoma
UO-31 renal = test system: UO-31 renal
COLO 205 colon = test system: COLO 205 colon
M14 melanoma = test system: M14 melanoma
MDA-MB-435 = test system: MDA-MB-435
NCI-H23 lung = test system: NCI-H23 lung
NCI/ADR-RES ovarian = test system: NCI/ADR-RES ovarian
OVCAR-4 ovarian = test system: OVCAR-4 ovarian
OVCAR-5 ovarian = test system: OVCAR-5 ovarian
SK-OV-3 ovarian = test system: SK-OV-3 ovarian

`Cc1ccc(/C=C2\Cc3cc(C)c(C)cc3C2=O)c(C(=O)O)c1` showed a TGI (786-0 renal) of over 100 µM, a TGI (A498 renal) of 61.3 µM and a TGI (A549 NSCLC) of over 100 µM. For the same molecule, the TGI (ACHN renal) was over 100 µM, the TGI (BT-549 breast) was 82.6 µM and the TGI (CAKI-1 renal) was over 100 µM. The TGI (CCRF-CEM leukemia) was over 100 µM, the TGI (DU-145 prostate) was over 100 µM and the TGI (EKVX NSCLC) was over 100 µM. It also gave a TGI (HCC-2998 colon) of over 100 µM, a TGI (HCT-116 colon) of over 100 µM and a TGI (HCT-15 colon) of over 100 µM. It also gave a TGI (HL-60(TB) leukemia) of over 100 µM, a TGI (HOP-62 NSCLC) of over 100 µM and a TGI (HS 578T breast) of over 100 µM. For the same molecule, the TGI (HT29 colon) was over 100 µM, the TGI (IGROV1 ovarian) was over 100 µM and the TGI (K-562 leukemia) was over 100 µM. It also gave a TGI (KM12 colon) of over 100 µM, a TGI (LOX IMVI melanoma) of over 100 µM and a TGI (MALME-3M melanoma) of over 100 µM. The TGI (MCF7 breast) was over 100 µM, the TGI (MDA-MB-231 breast) was over 100 µM and the TGI (MDA-N) was over 100 µM. For the same molecule, the TGI (MOLT-4 leukemia) was over 100 µM, the TGI (NCI-H226 lung) was 89.1 µM and the TGI (NCI-H460 lung) was over 100 µM. It also gave a TGI (NCI-H522 lung) of over 100 µM, a TGI (OVCAR-3 ovarian) of over 100 µM and a TGI (OVCAR-8 ovarian) of over 100 µM. It also gave a TGI (PC-3 prostate) of over 100 µM, a TGI (RPMI-8226 leukemia) of over 100 µM and a TGI (RXF 393 renal) of over 100 µM. It also gave a TGI (SF-268 CNS) of over 100 µM, a TGI (SF-295 CNS) of over 100 µM and a TGI (SF-539 CNS) of 74.7 µM. It also gave a TGI (SK-MEL-2 melanoma) of over 100 µM, a TGI (SK-MEL-28 melanoma) of over 100 µM and a TGI (SK-MEL-5 melanoma) of over 100 µM. It also gave a TGI (SN12C renal) of over 100 µM, a TGI (SNB-19 CNS) of over 100 µM and a TGI (SNB-75 CNS) of over 100 µM. The TGI (SR leukemia) was over 100 µM, the TGI (SW-620 colon) was over 100 µM and the TGI (T-47D breast) was over 100 µM. It also gave a TGI (TK-10 renal) of over 100 µM, a TGI (U251 CNS) of over 100 µM and a TGI (UACC-257 melanoma) of over 100 µM. It also gave a TGI (UACC-62 melanoma) of over 100 µM and a TGI (UO-31 renal) of over 100 µM.

`c1cc(CN2CCNCCNCCNCC2)cc(CN2CCNCCNCCNCC2)c1` gave a TGI (786-0 renal) of over 100 µM, a TGI (A549 NSCLC) of over 100 µM and a TGI (ACHN renal) of over 100 µM. For the same molecule, the TGI (BT-549 breast) was over 100 µM, the TGI (COLO 205 colon) was over 100 µM and the TGI (DU-145 prostate) was over 100 µM. The TGI (EKVX NSCLC) was over 100 µM, the TGI (HCC-2998 colon) was over 100 µM and the TGI (HCT-116 colon) was over 100 µM. For the same molecule, the TGI (HOP-62 NSCLC) was over 100 µM, the TGI (HS 578T breast) was over 100 µM and the TGI (HT29 colon) was over 100 µM. It also gave a TGI (IGROV1 ovarian) of over 100 µM, a TGI (K-562 leukemia) of over 100 µM and a TGI (KM12 colon) of over 100 µM. It also gave a TGI (LOX IMVI melanoma) of over 100 µM, a TGI (M14 melanoma) of over 100 µM and a TGI (MALME-3M melanoma) of over 100 µM. It also gave a TGI (MCF7 breast) of over 100 µM, a TGI (MDA-MB-231 breast) of over 100 µM and a TGI (MDA-MB-435) of over 100 µM. It also gave a TGI (MDA-N) of over 100 µM, a TGI (MOLT-4 leukemia) of over 100 µM and a TGI (NCI-H226 lung) of over 100 µM. The TGI (NCI-H23 lung) was over 100 µM, the TGI (NCI-H460 lung) was over 100 µM and the TGI (NCI/ADR-RES ovarian) was over 100 µM. For the same molecule, the TGI (OVCAR-3 ovarian) was over 100 µM, the TGI (OVCAR-4 ovarian) was over 100 µM and the TGI (OVCAR-5 ovarian) was over 100 µM. For the same molecule, the TGI (OVCAR-8 ovarian) was over 100 µM, the TGI (PC-3 prostate) was over 100 µM and the TGI (RPMI-8226 leukemia) was over 100 µM. The TGI (SF-268 CNS) was over 100 µM, the TGI (SF-295 CNS) was over 100 µM and the TGI (SF-539 CNS) was over 100 µM. The TGI (SK-MEL-2 melanoma) was over 100 µM, the TGI (SK-MEL-28 melanoma) was over 100 µM and the TGI (SK-MEL-5 melanoma) was over 100 µM. For the same molecule, the TGI (SK-OV-3 ovarian) was over 100 µM, the TGI (SN12C renal) was over 100 µM and the TGI (SNB-19 CNS) was over 100 µM. For the same molecule, the TGI (SNB-75 CNS) was over 100 µM, the TGI (SR leukemia) was over 100 µM and the TGI (SW-620 colon) was over 100 µM. For the same molecule, the TGI (T-47D breast) was over 100 µM, the TGI (TK-10 renal) was over 100 µM and the TGI (U251 CNS) was over 100 µM. For the same molecule, the TGI (UACC-257 melanoma) was over 100 µM, the TGI (UACC-62 melanoma) was over 100 µM and the TGI (UO-31 renal) was over 100 µM.
